Results as given in patent US4264600A (priority 1979, dated 1981).
Converted amounts (≈) assume the structure as drawn. Where two headings read alike, the source gives them in different places.

How the values were obtained:
[1] = system: Ann Arbor or Maryland B strains of influenza virus; test: in vivo survival of mice infected with influenza virus; parameters: species or system White Swiss female mice, McAllister strain; conditions: for minimal effective dose: read-out: in vivo dose at which there was a statistically significant increase in survival
Description: In vivo activity was determined as follows: White Swiss female mice (11-13 g.) McAllister strain were infected with aqueous dilutions of Ann Arbor or Maryland B strains of influenza virus in an air borne injection apparatus. Graded dose levels of the drug were injected intraperitoneally (IP) or administered orally by gavage 24 and 4 hours preinfection and 24 and 48 hours postinfection. Date of death was determined. The drug was administered in water containing 2% of a surfactant. In Table 1, column 7, a dosage level for each drug is given at which there was a statistically significant increase in survival and column 6 gives the route of administration.

[2] = system: Maryland B influenza virus; test: in vitro plaque inhibition, Maryland B influenza virus; assay type: cell-based; conditions: for IC50: unidentified influenza virus, in Chlorocebus sabaeus, 72 h, read-out: I50, amount of drug which inhibits 50% of the plaques
[3] = rats, 100 mg/kg
[4] = dogs, 30-60 mg/kg
[5] = system: Ann Arbor influenza virus; test: in vitro plaque inhibition, Ann Arbor influenza virus; assay type: cell-based; conditions: for IC50: unidentified influenza virus, in Chlorocebus sabaeus, 72 h, read-out: I50, amount of drug which inhibits 50% of the plaques
[6] = compared with 6,7-dichloro congener
Vaccinia = assay type: cell-based, Vaccinia virus; conditions: in vitro
Polio III = assay type: cell-based, Polio III virus; conditions: in vitro
Echo 10 = test: in vitro plaque suppression test, Echo 10; assay type: cell-based, Echo 10 virus; conditions: Echo 10, in vitro
Herpes simplex = test: in vitro plaque suppression test, Herpes simplex; assay type: cell-based, Herpes simplex virus
[7] = route IP, OR, 24 and 4 hours preinfection and 24 and 48 hours postinfection
[8] = increased to 60 mg/day for 7 days
[9] = nasogastric gavage, 30 mg/day for 14 days
[10] = route IP, 24 and 4 hours preinfection and 24 and 48 hours postinfection

With `O=C(O)CCc1nc2cc(Cl)c(Cl)cc2[nH]c1=O` [B] the minimal effective dose ([1]; ip) was 50 mg/kg.
With `COC(=O)c1nc2cc(Cl)c(Cl)cc2[nH]c1=O` [C] the IC50 [2] was < 10 µg/mL and the minimal effective dose ([1]; ip) was 60 mg/kg.
For `CCOC(=O)c1nc2cc(Cl)c(Cl)cc2[nH]c1=O` [D], the IC50 [2] was 38 µg/mL (≈ 132 µM), the minimal effective dose [1, 7] was 40 mg/kg and the blood urea nitrogen (30 then 60 mg/day) was “elevated”. The creatinine levels (30 then 60 mg/day) was “elevated”, the kidney damage (30 then 60 mg/day) was “evidence of kidney damage” and the AP [8] was “remain elevated”. For the same compound, the SGPT [8] was “returned to normal”, the AP [9] was “moderate increases” and the SGPT [9] was “moderate increases”. The “liver damage (from AP and SGPT)” value [9] was “suggestive of liver damage”, the “degree of hepatotoxicity (both drugs)” value [3] was “equal, though minor” and the “degree of nephrotoxicity (both drugs)” value [3] was “equal, though minor”. The “degree of hepatotoxicity (both drugs)” value [4] was “equal, though minor” and the “degree of nephrotoxicity (both drugs)” value [4] was “equal, though minor”.
In the case of `O=C(O)c1nc2cc(Cl)c(Cl)cc2[nH]c1=O` [E], the IC50 [2] is reported as < 71 µg/mL, the IC50 [5] is reported as < 100 µg/mL and the minimal effective dose ([1]; ip) is reported as 50 mg/kg.
For `CCOC(=O)c1nc2cc(I)c(I)cc2[nH]c1=O` [F, Ethyl 6,7-Diiodo-3,4-dihydro-3-oxo-2-quinoxaline Carboxylate], the “Ann Arbor influenza virus in vitro activity (in words)” value ([5]; Ann Arbor influenza virus, in vitro) was “Active” and the minimal effective dose [1] was 80 mg/kg.
Compound `CCCCOC(=O)c1nc2cc(Cl)c(Cl)cc2[nH]c1=O` [G] has an IC50 [2] of 38 µg/mL (≈ 121 µM).
Compound `O=C(OCCCl)c1nc2cc(Cl)c(Cl)cc2[nH]c1=O` [J] has an IC50 [2] of 58 µg/mL (≈ 180 µM) and an IC50 [5] of 76 µg/mL (≈ 236 µM).
With `C=CCOC(=O)c1nc2cc(Cl)c(Cl)cc2[nH]c1=O` [K] the IC50 [2] was 33 µg/mL (≈ 110 µM) and the IC50 [5] was 75 µg/mL (≈ 251 µM).
`O=C(OCC1CCC1)c1nc2cc(Cl)c(Cl)cc2[nH]c1=O` [L, Cyclobutylmethyl 6,7-Dichloro-3,4-dichloro-3-oxo-2-quinoxaline Carboxylate] showed an IC50 [2] of 15 µg/mL (≈ 45.8 µM) and an IC50 [5] of 20 µg/mL (≈ 61.1 µM).
With `CCOC(=O)c1nc2cc(Br)c(Br)cc2[nH]c1=O` [M] the minimal effective dose [1, 7] was 40 to 80 mg/kg, the “toxicity in monkeys relative to its 6,7-dichloro congener” value [6] was “much less toxic” and the “degree of hepatotoxicity (both drugs)” value [3] was “equal, though minor”. For the same compound, the “degree of nephrotoxicity (both drugs)” value [3] was “equal, though minor”, the “degree of hepatotoxicity (both drugs)” value [4] was “equal, though minor” and the “degree of nephrotoxicity (both drugs)” value [4] was “equal, though minor”.
For “Ethyl 6(7)-Chloro-7(6)-bromo-3,4-dihydro-3-oxo-2-quinoxalineCarboxylate”, the “in vivo dose at which there was a statistically significant increase in survival” value [1, 10] was 80 mg/kg, the “Activity level (dose level at which activity was found)” value (“Activity level” for short) (Vaccinia) was 2000 µg/mg and the “Activity level” value (Polio III) was 2000 µg/mg.
With “Ethyl 6-Nitro-8-chloro-3,4-dihydro-3-oxo-2-quinoxaline carboxylate and Ethyl 7-Nitro-5-chloro-3,4-dihydro-3-oxo-2-quinoxaline Carboxylate [S]” the “in vivo dose at which there was a statistically significant increase in survival” value [1, 10] was 80 mg/kg, the “Activity level” value (Vaccinia) was 2000 µg/mg and the “Activity level” value (Echo 10) was 2000 µg/mg. The “Activity level” value (Herpes simplex) was 2000 µg/mg.
With “Ethyl 6-methoxy-5-nitro-3,4-dihydro-3-oxo-2-quinoxaline Carboxylate and Ethyl 7-Methoxy-8-nitro-3,4-dihydro-3-oxo-2-quinoxaline Carboxylate” the “in vivo dose at which there was a statistically significant increase in survival” value [1, 10] was 80 mg/kg, the “Activity level” value (Echo 10) was 2000 µg/mg and the “Activity level” value (Herpes simplex) was 2000 µg/mg.
With “ethyl 6(7)-nitro-3,4-dihydro-3-oxo-2-quinoxaline carboxylate” the “I50, amount of drug which inhibits 50% of the plaques” value ([2]; Maryland B influenza virus, in vitro, 72 hours at 37° C.) was 40 µg/mL, the “in vivo dose at which there was a statistically significant increase in survival” value [1, 10] was 80 mg/kg and the “Activity level” value (Vaccinia) was 2000 µg/mg.
